In article PMC1976386 (Molecular Microbiology, 2007) one finds Km data, which are given here for one compound.

The target in this assay is CaKip1p (Candida albicans, UniProt A0A1D8PT88). Conditions: read-out: Value.

Regarding `Nc1ncnc2c1ncn2[C@@H]1O[C@H](COP(=O)(O)OP(=O)(O)OP(=O)(O)O)[C@@H](O)[C@H]1O` [ATP], the Km turned out to be 7.4 ± 0.7 µM.
